Where a SMILES comes first, the peptide text is derived from it.
Experiments:
[1] = Experimental: Liposome permeabilization assays. Liposomes were constructed by hydration of dried lipid films with 10 mM Hepes and 30 mM calcein to a final lipid concentration of 10 mg/ml. Resulting multilamellar liposomes were extruded through a 0.1 μm polycarbonate filter at temperatures above the transition point of the particular lipid mixture. Untapped calcein was removed by gel filtration (Sephacryl S-300 HR). Permeabilization of liposomes was monitored fluorimetrically with a Perkin Elmer LS-55 luminescent spectrophotometer. Assays were performed by diluting liposomes 1:1000 into the appropriate buffer and monitoring fluorescence when excited by 484 nm light (5 nm slit width) and reading the emission intensity at 513 nm (10 nm slit widths). The percentage calcein release was calculated relative to the 100% fluorescence intensity, achieved by the addition of 0.01% Triton X-100.
[2] = tested on: Human embryonic kidney cells (HEK)
[3] = tested on: Bloodstream form T. b. brucei Lister 427; test: Trypanosome killing assay, Example 2; type: cell-based, Trypanosoma brucei brucei; conditions: two hours at 37° C.
Experimental: Trypanosome killing assays. Bloodstream form T. b. brucei Lister 427 (MiTat 1.2), T. b. gambiense type 1 (Eliane strain) and T. b. rhodesiense KETR12482 were used in these studies. Trypanosome killing assays were performed as described previously (Hajduk et al., 1989, J Biol Chem; 264(9):5210-5217; Shiflett et al., 2005, J Biol Chem; 280(38):32578-32585; and Widener et al., 2007, PLoS Pathog; 3(9):1250-1261). Cultured trypanosomes (except for T. b. gambiense which were incubated at 1×10^6 cells/ml) were incubated in HMI-9 media (BSF) or SM media (PCF) at a density of 1×10^7 cells/ml containing either 10% heat inactivated fetal bovine serum or bovine serum albumin and peptide or control reagents for two hours at 37° C. Killing of BSF trypanosomes was evaluated by phase-contrast microscopy. Procyclic form trypanosomes were stained with 0.1% trypan blue. Trypan blue staining was also used for some BSF assays to eliminate any possible discrepancy between the PCF and BSF assays. Trypan blue was added at the endpoint of each assay to avoid any toxic effects.

[4] = tested on: bloodstream form T. b. brucei (wild type 427); test: Trypanosome lysis assay with Hpr-SP; type: cell-based, Trypanosoma brucei brucei; conditions: 8-80 μM peptide, 2 h, 37° C.
Experimental: Trypanosome lysis assays. Trypanosomes were cultured in the appropriate media and incubated at a cell density of 3×10^6 cells/ml with the addition of peptide from a 10 mg/ml stock in DMSO, or control reagents for 2 hours (h) at 37° C. Lysis of bloodstream form trypanosomes was evaluated by phase-contrast microscopy. Procyclic form trypanosomes were stained with 0.1% trypan blue. Trypan blue staining was also used for some bloodstream form assays to eliminate any possible discrepancy between the procyclic and bloodstream form assays.

[5] = tested on: BSF T. b. brucei; test: Trypanosome killing assay, Example 4; type: cell-based, Trypanosoma brucei brucei; conditions: two hour killing assay, 37° C.
Experimental: Trypanosome Killing Assays. Light microscopy based trypanosome killing assays were performed as previously described in detail (Harrington et al., 2010, J Biol Chem; 285(37):28659-66; Widener et al., 2007, PLoS Pathog; 3(9):1250-61; Shiflett et al., 2007, J Eukaryot Microbiol; 54(1):18-21; and Hajduk et al., 1989, J Biol Chem; 264(9):5210-7). Metacyclic T. b. brucei TREU 667 were obtained from dissection of the salivary glands of infected tsetse flies. Newly hatched Glossina morsitans morsitans (24-48 hours post eclosion) were fed defibrinated horse blood containing 2×10^6 ml^−1 trypanosomes and maintained at 25° C. in 75% relative humidity and fed maintenance blood meals three times per week. Following day 20-30, flies were harvested and salivary glands were dissected out and washed in HMI 9 media containing 10% fetal bovine serum. Metacyclic cells were collected via centrifugation and maintained in HMI 9 media with 10% fetal bovine serum at 37° C. in 5% CO2 until use. Killing assays were conducted with 1×10^4 cells/ml in HMI 9 media containing 10% fetal bovine serum. Trypanosoma vivax and T. congolense were grown from stabilites in donor ICR mouse (Harlan, United Kingdom). Parasites were harvested from mice by terminal exsanguination and passage of infected blood through a small anion exchange column. Cells were maintained in HMI 9 with 20% goat serum at 37° C. in 5% CO2 until use. Killing assays were performed with 1×10^7 cells/ml in HMI 9 media with either 20% goat serum, in the case of T. vivax and T congolense, and 10% fetal bovine serum, for T. b. brucei. Cells were incubated at 37° C. for 2 hours and dead parasites were scored visually. All were conducted in at least duplicate, and data points are the averages with standard deviations.

[6] = tested on: plasma membrane of live BSF T. b. brucei; test: Anisotropy assays with DPH and TMA-DPH, Example 4; type: cell-based, Trypanosoma brucei brucei; conditions: 37° C.
Experimental: Anisotropy Assays. The plasma membrane rigidity of live T. b. brucei was determined by measuring the fluorescence depolarization of diphenyl-1,3,5-hexatriene p-toluenesulfonate (DPH) or 1-(4-trimethylammoniumphenyl)-6-diphenyl-1,3,5-hexatriene p-toluenesulfonate (TMA-DPH; Invitrogen T204). Cells were washed 3 times with and resuspended in PBS at a density of 3×10^6 cells/ml. The anisotropic probes were added to a final concentration of […] and allowed to intercalate into the cell membrane for one hour in the dark. Anisotropic values were acquired via the software function of a PerkinElmer Life Sciences LS55 spectrofluorometer. Samples were excited at 358 nm, and emission was read at 430 nm, both with 10-nm slit widths. Temperature was maintained at 37° C. by means of the PerkinElmer LS55 Biokinetics accessory. Data were corrected for light scattering with an unlabeled sample of cells, and anisotropy was calculated according to the equation r=(IVV−GIVH)/(IVV+2GIVH), where r is the anisotropy value, IVV is the emission intensity acquired with the excitation- and emission-polarizing filters set vertically, G is the instrument correction factor, and IVH is the emission intensity acquired with the excitation-polarizing filter set vertically and the emission-polarizing filter set horizontally. All assays were conducted at 37° C. […]

[7] = tested on: BSF T. b. brucei; test: Trypanosome motility by video microscopy, Example 4; type: cell-based, Trypanosoma brucei brucei; conditions: 40 μM peptide, 37° C.
Experimental: Trypanosome motility. All images and videos were acquired with an Axio Observer Z1 equipped with an AxioCam MRm controlled by AxioVision 4.6 software. Videos were acquired with live cells at a density of 1×10^7 cells/ml in HMI 9 media with 10% fetal bovine serum, incubated with 40 µM SHP-1 at 37° C. Videos were recorded at magnification 63× with 50-ms acquisition times. The motility of BSF trypanosomes was scored visually from video playback of trypanosomes scanned throughout 10 μl aliquots. Data is shown as the average of triplicate trials with standard deviations.

With CC[C@H](C)[C@H](NC(=O)[C@@H](NC(=O)[C@H](C)NC(=O)CNC(=O)[C@H](CC(C)C)NC(=O)[C@H](CC(=O)O)NC(=O)[C@H](CO)NC(=O)[C@@H](N)CCSC)C(C)C)C(=O)N[C@@H](CO)C(=O)N[C@@H](CC(C)C)C(=O)N[C@@H](CC(C)C)C(=O)N[C@@H](CC(C)C)C(=O)N[C@@H](Cc1c[nH]c2ccccc12)C(=O)NCC(=O)N[C@@H](CCCNC(=N)N)C(=O)N[C@@H](CCC(N)=O)C(=O)N[C@@H](CC(C)C)C(=O)N[C@@H](Cc1ccccc1)C(=O)N[C@@H](C)C(=O)O [Hpr-SP, MSDLGAVISLLLWGRQLFA] (H-MSDLGAVISLLLWGRQLFA-OH; N-terminus and C-terminus assumed) the “permeabilization of DSPC liposomes (calcein leakage)” value ([1]; neutral or acidic pH) was “no permeabilizing activity at neutral or acidic pH”, the “permeabilization of egg PC liposomes (calcein leakage)” value ([1]; robust at pH 6.8) was “readily permeabilized by nanomolar concentrations” and the “toxicity towards human embryonic kidney cells” value [2] was “No toxicity was observed”.
For “AKLIALTLLGMGLALFRNHQS (amino acid sequence of small hydrophobic peptide -2 (SHP-2)) [Signal peptide of human paraoxonase-1 without the N-terminal methionine]”, the “killing of BSF T. b. brucei” value [3] was “equivalent to SHP-1”.
For “ERTEESWGRRFWRRGEAC (non-specific, hydrophilic peptide predicted from the N-terminus of the alternatively edited protein-1 from mitochondria of T. b. brucei) [NSP, Non-specific hydrophilic peptide predicted from the N-terminus of alternatively edited protein-1 of T. b. brucei mitochondria, reference compound]”, the “killing (trypanolysis) of bloodstream form trypanosomes” value [4] was “gave no trypanolysis” and the “killing of BSF T. b. brucei” value [3] was “exhibited no toxicity”.
For “FHQIWAALLYFYGIIENSIY (derivative of SHP-3 having a leucine to glutamic acid substitution at position -5) [SHP-3ΔE]”, the “killing of BSF T. brucei (trypanocidal activity)” value (shortened to “killing of BSF T. brucei”) [5] was “does not”.
With “FHQIWAALLYFYGIIRNSIY (derivative of SHP-3 having a leucine to arginine substitution at position -5) [SHP-3ΔR]” the “killing of BSF T. brucei” value [5] was “confers trypanocidal activity”, the “rigidity of the interfacial region of the plasma membrane (TMA-DPH)” value [6] was “increased the rigidity of the interfacial region of the plasma membrane” and the “motility phenotype (hyperactivation, constriction)” value [7] was “induce both initial hyperactivation and subsequent constriction”.
With “SDLGAVISLLWGRQLFA (derivative of SHP-1 having a single leucine deletion) [SHP-1-ΔL]” the “decrease in trypanocidal activity relative to SHP-1” value [3] was “five-fold”.
In the case of “SDLGAVISWGRQLFA (derivative of SHP-1 having a deletion of C-terminal leucine in triplicate) [SHP-1-ΔLLL, Derivative of SHP-1 with deletion of C-terminal leucine triplicate]”, the “killing of BSF T. b. brucei” value [3] is reported as “complete lose of trypanosome killing activity”.
For “SDVISLLLWGRQLFA (derivative of SHP-1 having a deletion of the N-terminal leucine-glycine-alanine residues) [SHP-1-ΔLGA, Derivative of SHP-1 with a deletion of the N-terminal leucine-glycine-alanine residues]”, the “killing of BSF T. b. brucei” value [3] was “complete lose of trypanosome killing activity”.
In the case of “SRLGAVISLLLWGDQLFA (derivative of SHP-1 having an aspartic acid to arginine substitution at position 2 and an arginine to aspartic acid subsitution at position -5) [SHP-1-swap, SHP-1 with aspartic acid at position 2 and arginine at position −5 swapped]”, the “killing of BSF T. brucei” value [5] is reported as “loss of trypanocidal activity”.

Source: patent US9079977B2, “Anti-trypanosomal peptides and uses thereof” (priority 2009, dated 2015)
